Data taken from PMC8230303, “Coumarin-Based Triapine Derivatives and Their Copper(II) Complexes: Synthesis, Cytotoxicity and mR2 RNR Inhibition Activity” (Biomolecules, 2021).
Like-named read-outs stand apart in the source and are kept apart here.

Tests used:
[1] = design: method as in doi:10.1002/ejic.200901174; conditions: copper(II) complex of the named ligand; cited from earlier work
COLO-320 cells = test: Inhibition of cell viability, colorimetric MTT assay; type: cell-based, human; conditions: for IC50: Homo sapiens, COLO 320, MTT assay, 72 h exposure, mean ± SD
Protocol: (§1) Human breast adenocarcinoma cells MDA-MB-231, sensitive COLO-205 and multidrug resistant COLO-320 colorectal adenocarcinoma cells and normal human lung fibroblasts MRC-5 were obtained from ATCC. COLO-205 and COLO-320 cells were cultured in RPMI-1640 medium containing 10% foetal bovine serum, MRC-5 cells were cultured in EMEM medium containing 10% foetal bovine serum. MDA-MB-231 cells were cultured in DMEM/high glucose medium containing 10% FBS. Adherent MDA-MB-231 cells were grown in Falcon tissue culture 75 cm^2 flasks and all other cells were grown in tissue culture 25 cm^2 flasks (BD Biosciences, Singapore). All cell lines were grown at 37 °C in a humidified atmosphere of 95% air and 5% CO2. The stock solutions of copper(II) complexes were prepared in DMSO.
(§2) The cytotoxicity of the compounds was determined by colorimetric MTT assay. The cells were harvested from culture flasks by trypsinisation and seeded into Cellstar 96-well microculture plates at the seeding density of 6000 cells per well (6 × 10^4 cells/mL, MDA-MB-231) or 10,000 cells per well (1× 10^5 cells/mL cells/mL, COLO-205, COLO-320 and MRC-5). The cells were allowed to resume exponential growth for 24 h, and subsequently were exposed to drugs at different concentrations in media for 72 h. The drugs were diluted in complete medium at the desired concentration and added to each well (100 µL) and serially diluted to other wells. After exposure for 72 h, the media were replaced with MTT in media (5 mg/mL, 100 µL) and incubated for additional 50 min. Subsequently, the media were aspirated and the purple formazan crystals formed in viable cells were dissolved in DMSO (100 µL). Optical densities were measured at 570 nm using the BioTek H1 Synergy (BioTek, Singapore) microplate reader. The quantity of viable cells was expressed in terms of treated/control (T/C) values in comparison to untreated control cells, and 50% inhibitory concentrations (IC50) were calculated from concentration-effect curves by interpolation. Evaluation was based on at least three independent experiments, each comprising six replicates per concentration level.

COLO-205 cells = test: as above; type: cell-based; conditions: Homo sapiens, 72 h exposure, mean ± SD
Protocol: as §1, §2

MDA-MB-231 cells [2] = test: as above; type: cell-based; conditions: Homo sapiens, 72 h exposure, mean ± SD
Protocol: as §1, §2

MRC-5 cells = test: as above; type: cell-based; conditions: Homo sapiens, MRC5, healthy lung fibroblasts, 72 h exposure, mean ± SD
Protocol: as §1, §2

mouse R2 RNR protein = biological target: T1, mouse R2 RNR protein (Mus musculus, UniProt P11157); design: method as in PMID 32961653; conditions: in 3 min; cited from earlier work
T1 construct: mR2 protein was expressed, purified, and iron-reconstituted as described previously; made in house
T1 sequence (P11157 1-390): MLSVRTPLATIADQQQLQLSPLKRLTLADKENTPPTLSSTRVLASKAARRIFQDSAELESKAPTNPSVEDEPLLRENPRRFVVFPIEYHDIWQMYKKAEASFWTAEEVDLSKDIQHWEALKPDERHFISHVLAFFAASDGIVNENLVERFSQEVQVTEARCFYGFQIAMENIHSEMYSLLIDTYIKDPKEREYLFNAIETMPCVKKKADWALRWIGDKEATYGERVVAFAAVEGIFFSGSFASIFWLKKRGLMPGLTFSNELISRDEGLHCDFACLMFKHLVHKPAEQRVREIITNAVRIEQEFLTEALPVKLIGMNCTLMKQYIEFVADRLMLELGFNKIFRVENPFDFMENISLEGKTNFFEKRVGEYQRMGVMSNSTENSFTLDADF

MDA-MB-231 cells [3] = test system: MDA-MB-231 cells; design: method as in PMID 30384010; conditions: cited from earlier work

CN(C)C(=S)NN=Cc1ncccc1N [APTSC, 3-aminopyridine-2-carboxaldehyde 4N-dimethylthiosemicarbazone]
logβ[CuL]+ [1]: 13.95(2)

Cc1cc(NCNN=Cc2cc(CN3CCN(C(=O)c4cc5ccc(O)cc5oc4=O)CC3)ccn2)cc(C)c1O [HL^3, 7-Hydroxy-3-(4-((2-((2-(((4-hydroxy-3,5-dimethylphenyl)amino)methyl)hydrazineylidene)-methyl)pyridin-4-yl)methyl)piperazine-1-carbonyl)-2H-chromen-2-one]
IC50 (COLO-320 cells): 90 ± 10 µM
IC50 (COLO-205 cells): 76 ± 8 µM
IC50 (MDA-MB-231 cells [2]): 11 ± 1 µM
IC50 (MRC-5 cells): > 100 µM

O=C(c1cc2ccc(O)cc2oc1=O)N1CCN(Cc2ccnc(C=NNC(=S)Nc3ccccc3)c2)CC1 [HL^2, 2-((4-((4-(7-Hydroxy-2-oxo-2H-chromene-3-carbonyl)piperazin-1-yl)methyl)pyridin-2-yl)methylene)-N-phenylhydrazine-1-carbothioamide]
IC50 (COLO-320 cells): 83 ± 7 µM
IC50 (COLO-205 cells): 89 ± 6 µM
IC50 (MDA-MB-231 cells [2]): 18 ± 4 µM
IC50 (MRC-5 cells): 54 ± 5 µM

NC(=S)NN=Cc1ncccc1N [Triapine, 3-aminopyridine-2-carboxaldehyde thiosemicarbazone]
tyrosyl radical reduction (mouse R2 RNR protein): 100%
IC50 (MDA-MB-231 cells [3]): 1.5 ± 1.1 µM
logβ[CuL]+ [1]: 13.89(3)

COc1cccc2c1C(=O)c1c(O)c3c(c(O)c1C2=O)C[C@@](O)(C(=O)CO)C[C@@H]3O[C@H]1C[C@H](N)[C@H](O)[C@H](C)O1 [Doxorubicin, reference compound]
IC50 (COLO-320 cells): 3.1 µM
IC50 (COLO-205 cells): 3.3 µM
IC50 (MRC-5 cells): 5.2 µM

CN(C)C(=S)NN=Cc1cc(CN2CCN(C(=O)c3cc4ccc(O)cc4oc3=O)CC2)ccn1 [HL^1, 2-((4-((4-(7-Hydroxy-2-oxo-2H-chromene-3-carbonyl)piperazin-1-yl)methyl)pyridin-2-yl)methylene)-N,N-dimethylhydrazine-1-carbothioamide]
IC50 (COLO-320 cells): 6.7 ± 0.9 µM
IC50 (COLO-205 cells): 9.2 ± 0.1 µM
IC50 (MDA-MB-231 cells [2]): 4.8 ± 1.3 µM
IC50 (MRC-5 cells): 41 ± 1 µM

CN(C)C(=S)NN=Cc1ccccn1 [PTSC, pyridine-2-carboxaldehyde 4N-dimethylthiosemicarbazone]
logβ[CuL]+ [1]: 13.57(2)

CN(C)C(=S)NN=Cc1cc(COc2ccc3cc(C(=O)N4CCN(Cc5ccnc(C=NNC(=S)N(C)C)c5)CC4)c(=O)oc3c2)ccn1 [H2L^4, 2-((4-((4-(7-((2-((2-(dimethylcarbamothioyl)hydrazineylidene)methyl)pyridin-4-yl)methoxy)-2-oxo-2H-chromene-3-carbonyl)piperazin-1-yl)methyl)pyridin-2-yl)methylene)-N,N-dimethylhydrazine-1-carbothioamide]
IC50 (COLO-320 cells): 4.6 ± 0.3 µM
SF (COLO-320 cells; IC50(MRC-5)/IC50(COLO-320)): 0.9
IC50 (COLO-205 cells): 4.4 ± 0.7 µM
IC50 (MDA-MB-231 cells [2]): 3 ± 0.3 µM
IC50 (MRC-5 cells): 4 ± 0.3 µM
